Data on two molecules can be found in patent US20110144348A1, “VOLTAGE-SENSITIVE DYE AND METHOD OF PREPARING THE SAME” (Electronics and Telecommunications Research Institute, priority 2009, published 2011).

The conditions of test [1]: used in vitro to dye a cell; cited from earlier work.
Test [2] in a line: sensitivity of the VSD according to an external voltage (FIGS. 4A and 4B). The settings on record: electrical stimulation=500 mA; compared with Di-4-ANEPPS. From the text:
VSD according to an external voltage, and FIG. 4B is a diagram showing sensitivity of the VSD of the exemplary embodiment of the present invention according to an external voltage.
Referring to FIGS. 4A and 4B, sensitivities according to a voltage between the conventional VSD (Di-4-ANEPPS) in FIG. 4A and the VSD according to the exemplary embodiment of the present invention (ETRI-Di-8) in FIG. 4B are compared (electrical stimulation=500 mA).

For the molecule `CCCCN(CCCC)c1ccc2cc(/C=C/c3cc[n+](CCCS(=O)(=O)[O-])cc3)ccc2c1` [Di-4-ANEPPS], the “sensitivity to an electric field” value in test [1] is listed as “approximately 10 % per 100 mV”.

For the molecule `O=S1(=O)CCCO1` [ETRI-Di-8], in test [2], the “voltage sensitivity relative to Di-4-ANEPPS” value was “three”.
